{"source": "patent US11912682B2", "about": "“Isoindolinone compounds” (Monte Rosa Therapeutics, Inc., priority 2021, dated 2024)", "key": {"IKZF3": {"molecular_target": "IKZF3 (Homo sapiens (Human), UniProt Q9UKT9)", "sequence (Q9UKT9 whole entry, looked up)": "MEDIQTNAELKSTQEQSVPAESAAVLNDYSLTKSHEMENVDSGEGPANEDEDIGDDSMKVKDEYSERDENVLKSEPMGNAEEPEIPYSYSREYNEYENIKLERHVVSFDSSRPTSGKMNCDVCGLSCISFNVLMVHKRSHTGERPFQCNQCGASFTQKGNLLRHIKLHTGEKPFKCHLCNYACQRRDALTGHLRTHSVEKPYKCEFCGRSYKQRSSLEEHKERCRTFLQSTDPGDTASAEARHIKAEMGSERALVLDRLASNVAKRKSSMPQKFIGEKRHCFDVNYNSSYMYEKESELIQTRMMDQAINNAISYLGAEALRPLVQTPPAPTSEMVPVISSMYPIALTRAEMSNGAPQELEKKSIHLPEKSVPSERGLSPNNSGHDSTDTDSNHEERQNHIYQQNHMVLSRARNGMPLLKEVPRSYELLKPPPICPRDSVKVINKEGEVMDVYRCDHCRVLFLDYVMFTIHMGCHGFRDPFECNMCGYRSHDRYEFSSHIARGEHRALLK", "experiment": "IKZF3 degradation in cells treated with compound (FIG. 1A)", "type": "cell-based", "conditions": "concentrations up to 30 µM"}, "[1]": {"tested_on": "human cell line NCI-H1770", "experiment": "N-Myc-driven mouse xenograft model, NCI-H1770 (FIG. 3C)", "type": "in vivo"}, "human cell line NCI-H526": {"tested_on": "human cell line NCI-H526", "experiment": "N-Myc-driven mouse xenograft model, NCI-H526 (FIG. 3D)", "type": "in vivo"}, "[2]": {"conditions": "6 mg/kg PO five days on and nine days off"}}, "data": [{"smiles": "Cc1ccc(NC(=O)OCc2ccc3c(c2)C(=O)N(C2CCC(=O)NC2=O)C3)cc1Cl", "note": "(stereo not drawn) [Compound 10]", "values": [{"measurement": "degradation of IKZF3", "setting": "IKZF3", "value": "no induction of degradation"}, {"measurement": "tumor size (tumor volume)", "setting": "[1]; 3 mg/kg PO once daily", "value": "tumor size decreased and remained so until the end of the study"}, {"measurement": "tumor size (tumor volume)", "setting": "[1]; [2]", "value": "tumor size decreased and remained so until the end of the study"}, {"measurement": "body weight", "setting": "[1]; oral administration", "value": "no body weight loss"}, {"measurement": "effect on tumor growth (tumor volume)", "setting": "[1]; oral administration", "value": "tumor growth inhibition"}, {"measurement": "tumor size (tumor volume)", "setting": "human cell line NCI-H526; 3 mg/kg PO once daily", "value": "tumor size decreased and remained so until the end of the study"}, {"measurement": "tumor size (tumor volume)", "setting": "human cell line NCI-H526; [2]", "value": "tumor size decreased and remained so until the end of the study"}, {"measurement": "body weight", "setting": "human cell line NCI-H526; oral administration", "value": "no body weight loss"}, {"measurement": "effect on tumor growth (tumor volume)", "setting": "human cell line NCI-H526; oral administration", "value": "tumor growth inhibition"}]}]}
